Data: patent US20260092061A1, “COMPOUNDS FOR TARGETED PROTEIN DEGRADATION” (Amphista Therapeutics Limited, priority 2022, published 2026)
Where two headings read alike, the source gives them in different places.

How the values were obtained:
Assay type in all cases: cell-based
[1] = target: T1, BRD9 (Homo sapiens, UniProt Q9H8M2); assay: BRD9 degradation, HiBiT-BRD9 KI HEK293 (LgBiT) cells, NanoGlo Lytic Endpoint assay (Assay Protocol 1); conditions: for Dmax at 1 µM: HEK293; for DC50: 6 h of treatment, read-out: Assay 1 DC50
T1 sequence (Q9H8M2 1-597): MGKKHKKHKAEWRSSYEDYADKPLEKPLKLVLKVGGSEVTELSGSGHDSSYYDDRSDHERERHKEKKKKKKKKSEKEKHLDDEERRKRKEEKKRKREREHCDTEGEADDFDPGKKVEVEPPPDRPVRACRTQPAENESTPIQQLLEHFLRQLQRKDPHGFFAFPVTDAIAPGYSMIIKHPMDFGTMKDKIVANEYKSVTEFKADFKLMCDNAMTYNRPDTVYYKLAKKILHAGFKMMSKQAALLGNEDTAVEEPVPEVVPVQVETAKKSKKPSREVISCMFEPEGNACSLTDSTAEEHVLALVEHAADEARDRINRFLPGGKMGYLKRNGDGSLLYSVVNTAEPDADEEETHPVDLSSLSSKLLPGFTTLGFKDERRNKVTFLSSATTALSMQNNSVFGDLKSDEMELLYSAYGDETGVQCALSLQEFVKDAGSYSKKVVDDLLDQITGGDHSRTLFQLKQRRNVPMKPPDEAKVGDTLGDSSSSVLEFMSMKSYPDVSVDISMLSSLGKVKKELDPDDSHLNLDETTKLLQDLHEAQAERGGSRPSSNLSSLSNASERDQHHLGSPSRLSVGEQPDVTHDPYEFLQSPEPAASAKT
In short: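 HiBiT-tagged BRD9 knock-in HEK293 (LgBiT) cells exposed to compounds for 6 h at 37 °C, 5% CO2. Residual BRD9 measured by HiBiT lytic luminescence. % BRD9 remaining normalised to DMSO-treated cells (high) and no-cell wells (low).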

[2] = target: T2, BRD4 (Homo sapiens, UniProt O60885); assay: BRD4 degradation, HiBiT-BRD4 HEK293 CRISPR CPM cells, NanoGlo Lytic Endpoint assay (Assay Protocol 1); conditions: Table 3, assay 1; for Dmax: HEK293, 1 μM compound at 5 h of treatment; for DC50: 5 h of treatment
T2 construct: HiBiT-BRD4 HEK293 CRISPR CPM (Promega CS302312); host or cells: HEK293, CRISPR-edited (HiBiT at the BRD4 locus)

[3] = target: T1, BRD9; assay: BRD9 degradation, HiBiT-BRD9 KI HEK293 (LgBiT) cells, NanoGlo Lytic Endpoint assay (Assay Protocol 1); conditions: Table 3; assay 1; 5 h of treatment
[4] = target: T3, BRD7 (Homo sapiens, UniProt Q9NPI1); assay: BRD7 degradation, HiBiT-BRD7 KI HEK293 (LgBiT) cells, NanoGlo Lytic Endpoint assay (Assay Protocol 1); conditions: HEK293; Table 3; assay 1; 1 μM compound at 5 h of treatment
T3 construct: HiBiT-BRD7 KI HEK293 (LgBiT) Cells (Promega CS3023410); host or cells: HEK293 (LgBiT), HiBiT knock-in at the BRD7 locus
T3 sequence (Q9NPI1 1-651): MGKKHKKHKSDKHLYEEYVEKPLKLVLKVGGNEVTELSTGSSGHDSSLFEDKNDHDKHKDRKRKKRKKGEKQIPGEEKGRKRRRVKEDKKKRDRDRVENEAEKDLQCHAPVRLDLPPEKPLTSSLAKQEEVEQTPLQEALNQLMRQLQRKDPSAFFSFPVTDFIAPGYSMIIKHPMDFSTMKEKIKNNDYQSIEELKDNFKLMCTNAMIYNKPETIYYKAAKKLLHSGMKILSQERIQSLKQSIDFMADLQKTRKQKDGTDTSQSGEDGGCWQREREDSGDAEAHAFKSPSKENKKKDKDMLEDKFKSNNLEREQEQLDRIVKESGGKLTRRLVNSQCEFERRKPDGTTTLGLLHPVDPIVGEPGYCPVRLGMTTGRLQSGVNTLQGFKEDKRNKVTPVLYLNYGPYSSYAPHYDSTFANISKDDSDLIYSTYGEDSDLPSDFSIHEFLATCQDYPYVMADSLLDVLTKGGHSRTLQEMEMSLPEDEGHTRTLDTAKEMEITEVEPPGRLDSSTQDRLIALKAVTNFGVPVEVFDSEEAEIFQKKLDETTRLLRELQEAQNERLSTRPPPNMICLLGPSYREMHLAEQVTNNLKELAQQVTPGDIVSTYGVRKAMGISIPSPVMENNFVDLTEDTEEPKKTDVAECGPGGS
Experimental: HiBiT-BRD9 KI HEK293 (LgBiT) Cells (Promega CS3023412) were seeded at 8000 cells per well (38 μL) in sterile white bottom 384 well plates (Invitrogen 164610 or Greiner 781080) and incubated overnight at 37° C. with 5% CO2. The next day, compounds were prepared at 1000× final concentration in DMSO and diluted 1:100 in media (DMEM PAN Biotech P04-03550+10% FBS ATCC 302025). […] The lytic buffer was equilibrated to room temperature for 10-15 min before lytic reagent was prepared by adding substrate (1:50) and LgBit protein (1:100) in lytic buffer. 40 μL lytic reagent mix was added to each well of the cel plate and plates were centrifuged briefly at ˜50g. Plates were incubated with shaking (350 RPM) for 12-24 min before reading using the LUM plus module of a BMG Pherastar FSX. Data was analysed using Dotmatics software and % BRD9 remaining was calculated by normalisation to average data from high and low control wells (DMSO treated cels and no cells respectively).
BRD7 degradation was determined in line with the procedure as outlined above for BRD9, with the exception that HiBiT-BRD7 KI HEK293 (LgBiT) Cells (Promega CS3023410) were seeded at 8000 cells per well (CPW) (36 uL) in sterile white bottom 384 well plates (Invitrogen 164610 or Greiner 781080) and incubated overnight at 37° C. with 5% CO2.

[5] = Table 2, BRD9 degradation, Assay Protocol 1, 1 μM compound at 6 h of treatment, read-out: Assay 1 Dmax
[6] = Table 3, assay 1, 1 μM compound at 5 h of treatment, read-out: BRD9 Dmax (%)
[7] = Table 2, BRD9 degradation, Assay Protocol 1

| Dmax at 1 µM [1, 5] [%] | Dmax at 1 µM [1, 6] [%] | DC50 [1, 7] [nM] | Dmax [2] [%] | DC50 [2] [nM] | DC50 [3] [nM] | Dmax at 1 µM [4] [%] | Structure (SMILES) |
| --- | --- | --- | --- | --- | --- | --- | --- |
| > 75 | > 75 | < 1.25 | 40 to 70 | 25 to 1000 | < 1.25 | < 25 | COc1cc(-c2cc(C)c(=O)n(C)c2)cc(OC)c1CN1CCN(Cc2cccc3c2CCN(C(=O)/C(C#N)=C/C2(F)CC2)C3C)CC1 (mixture of isomers) [Compound A61, (E/Z)-2-(5-((4-(4-(1,5-dimethyl-6-oxo-1,6-dihydropyridin-3-yl)-2,6-dimethoxybenzyl)piperazin-1-yl)methyl)-1-methyl-1,2,3,4-tetrahydroisoquinoline-2-carbonyl)-3-(1-fluorocyclopropyl) acrylonitrile] |
| 40 to 70 | 40 to 70 | 1.25 to 10 | < 25 | – | 1.25 to 10 | 25 to 40 | COc1cc(-c2cn(C)c(=O)c(C)c2C)cc(OC)c1CN1CCN(Cc2cccc3c2CCN(C(=O)/C(C#N)=C/c2ncc(C)s2)C3C)CC1 (mixture of isomers) [Compound A29] |
| 40 to 70 | 40 to 70 | < 1.25 | 40 to 70 | 25 to 1000 | < 1.25 | < 25 | COc1cc(-c2cc(C)c(=O)n(C)c2)cc(OC)c1CN1CCN(Cc2cccc3c2CCN(C(=O)/C(C#N)=C/c2cccc(Br)n2)C3C)CC1 (mixture of isomers) [Compound A60] |
